Test results from patent US20020028938A1, “Prostaglandin endoperoxide H synthase biosynthesis inhibitors” (priority 1997, published 2002).
Blank lines part the entries; values can stand above or below the molecule they belong to.

Key:
[1] = molecular target: T1, recombinant human Cox-1 (r-hu Cox1) (Homo sapiens, UniProt P23219); assay: Recombinant human PGHS-1 enzyme assay (RHUCX1); format: biochemical; settings: for IC50: read-out: RHUCX1 IC50 (parenthetical value)
T1 construct: made in house; host or cells: baculovirus/Sf9 insect cells (microsomes)
T1 sequence (P23219 24-599): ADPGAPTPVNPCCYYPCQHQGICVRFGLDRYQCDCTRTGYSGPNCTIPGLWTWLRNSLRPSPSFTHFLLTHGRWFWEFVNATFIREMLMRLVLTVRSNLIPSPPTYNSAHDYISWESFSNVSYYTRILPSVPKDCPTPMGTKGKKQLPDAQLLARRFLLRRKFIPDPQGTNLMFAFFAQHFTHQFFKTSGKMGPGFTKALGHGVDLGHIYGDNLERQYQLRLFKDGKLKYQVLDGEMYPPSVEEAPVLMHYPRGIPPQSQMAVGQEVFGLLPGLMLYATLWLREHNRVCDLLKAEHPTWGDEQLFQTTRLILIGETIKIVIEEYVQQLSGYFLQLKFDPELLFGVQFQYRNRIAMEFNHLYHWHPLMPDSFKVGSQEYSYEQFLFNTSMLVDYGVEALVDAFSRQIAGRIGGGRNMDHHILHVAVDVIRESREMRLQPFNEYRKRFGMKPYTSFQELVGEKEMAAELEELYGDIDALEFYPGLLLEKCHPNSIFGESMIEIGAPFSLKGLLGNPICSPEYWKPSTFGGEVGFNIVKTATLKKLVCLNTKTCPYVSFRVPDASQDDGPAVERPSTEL
In short: (§1)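 PGE2 formed with and without drug quantified by EIA against matrix-matched standards; percent inhibition relative to control mean, IC50 by linear regression.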

[2] = molecular target: T2, recombinant human Cox-2 (r-hu Cox-2) (Homo sapiens, UniProt P35354); assay: Recombinant human PGHS-2 enzyme assay (RHUCX2); format: biochemical; settings: for IC50: read-out: RHUCX2 IC50 (parenthetical value)
T2 construct: made in house; host or cells: baculovirus/Sf9 insect cells (microsomes)
T2 sequence (P35354 18-604): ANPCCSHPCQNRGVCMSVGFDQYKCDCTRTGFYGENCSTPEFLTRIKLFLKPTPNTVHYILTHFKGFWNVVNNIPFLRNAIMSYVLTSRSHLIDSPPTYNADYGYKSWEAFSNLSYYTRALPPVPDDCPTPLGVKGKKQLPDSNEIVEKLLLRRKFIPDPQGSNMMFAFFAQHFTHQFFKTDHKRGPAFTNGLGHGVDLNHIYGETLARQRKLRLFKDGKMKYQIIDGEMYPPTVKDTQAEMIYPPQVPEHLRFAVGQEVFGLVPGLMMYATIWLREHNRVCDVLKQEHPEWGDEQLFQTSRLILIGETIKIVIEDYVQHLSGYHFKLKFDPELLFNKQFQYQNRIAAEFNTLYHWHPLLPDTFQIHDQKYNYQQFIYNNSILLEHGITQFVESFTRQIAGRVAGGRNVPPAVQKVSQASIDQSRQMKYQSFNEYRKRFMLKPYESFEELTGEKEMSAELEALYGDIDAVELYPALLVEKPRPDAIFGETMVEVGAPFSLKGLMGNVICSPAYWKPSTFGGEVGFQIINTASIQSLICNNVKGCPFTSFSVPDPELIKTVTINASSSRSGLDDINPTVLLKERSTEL
In short: as §1

[3] = molecular target: T3, Human Whole Platelet Cyclooxygenase-1 (Homo sapiens, UniProt P23219); assay: Human Whole Platelet Cyclooxygenase-1 assay (HWPX); format: cell-based; settings: for IC50: read-out: HWPX IC50 (parenthetical value)
T3 construct: from tissue; host or cells: human blood: isolated platelets (A4) or heparinised whole blood (A9)
T3 sequence (P23219 24-599): as the sequence (P23219 24-599) above
Description: Blood from normal healthy volunteers is collected into tubes containing ACD (acid citrate dextrose) as the anticoagulant. This blood is centrifuged at 175×g to prepare platelet rich plasma. The platelet rich plasma is then centrifuged at 100×g to pellet the white blood cells, leaving the platelets in the supernatant. The supernatant is layered on a cushion of 0.7 mL of 10% bovine serum albumin in Tyrodes solution (Gibco; Grand Island, N.Y.) and then centrifuged at 1000×g. The resulting supernatant from this centrifuigation is then removed and 11 mL of Tyrodes solution is added to the remaining pellet of platelets. The platelets are then aliquoted at 120 μl into a 96 well plate. Experimental compounds are added and allowed to pre-incubate for 10 minutes. At the end of this pre-incubation period, the calcium ionophore A23187 is added to a final concentration of 8.8 μM and the incubation is continued for ten minutes. The reaction is stopped by adding cold 6 mM EDTA, the incubation mixture is centrifuged at 220×g, and the supernatants are then analyzed for thromboxane using a commercial kit from Cayman Chemical (Ann Arbor, Mich.

[4] = molecular target: T4, human amnionic whole cell cyclooxygenase-2 (WISH cells) (Homo sapiens, UniProt P35354); assay: IL-1β induced PGE2 production in WISH cells; format: cell-based; settings: for IC50: read-out: Wish IC50 (parenthetical value)
T4 construct: endogenous in cells; host or cells: human amnionic WISH cells, induced with IL-1beta
T4 sequence (P35354 18-604): T2 sequence (P35354 18-604)
Description: EIA reagents for prostaglandin determination were purchased from Perseptive Diagnostics, (Cambridge, Mass.). Prostaglandin E2 (PGE2) levels in lavage fluids were determined after the samples were dried under nitrogen and reconstituted with assay buffer. PGE2 levels in enzyme assays or cell culture media were measured against standards prepared in the same milieu. The immunoassays were conducted as recommended by the manufacturer. The EIA was conducted in 96 well microtiter plates (Nunc Roskilde, Denmark) and optical density was measured using a microplate reader (Vmax, Molecular Devices Corp., Menlo Park, Calif.).
Human amnionic WISH cells were grown to 80% confluence in 48 well plates. Following removal of the growth medium and two washings with Geys Balanced Salt Solutn, 5 ng IL-1β /ml (UBI, Lake Placid, N.Y.) was added to the cells with or without test compound in DMSO (0.01% v/v) in Neuman-Tytell Serumless Medium (GIBCO, Grand Island, N.Y.).

[5] = 0.1 μM, read-out: RHUCX2 % Inh. at Dose
[6] = 1 μM, read-out: RHUCX2 % Inh. at Dose
[7] = 100 μM, read-out: RHUCX1 % Inh. at Dose
[8] = read-out: Wish % Inhib. at Dose
[9] = 10 μM, read-out: RHUCX1 % Inh. at Dose

Molecule: CC(c1cc(F)cc(F)c1)n1ncc(-c2ccc(S(N)(=O)=O)cc2)c(-c2ccc(F)cc2)c1=O (stereo not drawn) [Example 147, 2-(α-Methyl-3,5-difluorobenzyl)-4-(4-fluorophenyl)-5-[4-(aminosulfonyl)phenyl]-3(2H)-pyridazinone]
IC50 [1]: 67 nM
inhibition at 0.03 µM ([2]; 0.03 μM, read-out: RHUCX2 % Inh. at Dose): 0%
inhibition at 0.1 µM [2, 5]: 64%
inhibition at 1 µM [2, 6]: 100%
inhibition at 0.3 µM ([3]; 0.3 μM, read-out: HWPX % Inhib. at Dose): 84%
IC50 [4]: 29 nM
melting point: 139 to 141 °C

Molecule: NS(=O)(=O)c1ccc(-c2cnn(-c3ccc(F)cc3)c(=O)c2-c2ccc(F)cc2)cc1F [Example 72, 2,4-Bis-(4-fluorophenyl)-5-[3-fluoro-4-(aminosulfonyl)phenyl]-3(2H)-pyridazinone]
inhibition at 100 µM [1, 7]: 0%
inhibition at 0.1 µM [2, 5]: 18%
inhibition at 1 µM [2, 6]: 65%
IC50 [3]: 25000 nM
IC50 [4]: 72 nM
melting point: 222 to 224 °C

Molecule: CS(=O)(=O)c1ccc(-c2cnn(-c3cccc(Cl)c3)c(=O)c2-c2ccc(F)cc2)cc1 [Example 165]
inhibition at 100 µM [1, 7]: 0%
IC50 [2]: 1080 nM
IC50 [3]: 1900 nM
IC50 [4]: 30 nM
melting point: 232 to 235 °C

Molecule: CS(=O)(=O)c1ccc(-c2cnn(-c3ccc(F)cc3)c(=O)c2Oc2ccc(F)cc2)cc1 [Example 108, 2-(4-Fluorophenyl)-4-(4-fluorophenoxy)-5-[4-(methylsulfonyl)phenyl]-3(2H)-pyridazinone]
inhibition at 100 µM [1, 7]: 0%
IC50 [2]: 279 nM
IC50 [3]: 8000 nM
IC50 [4]: 97 nM

Molecule: CS(=O)(=O)c1ccc(-c2cnn(-c3cccc(Cl)c3)c(=O)c2C2CCCCC2)cc1 [Example 368, 2-(3-Chlorophenyl)-4-cyclohexyl-5-[4-(methylsulfonyl)phenyl]-3(2H)-pyridazinone]
inhibition at 100 µM [1, 7]: 13%
inhibition at 0.1 µM [2, 5]: 65%
inhibition at 1 µM [2, 6]: 96%
IC50 [3]: 13700 nM
inhibition at 0.01 µM [4, 8]: 33%
inhibition at 0.03 µM ([4]; 0.03 μM, read-out: Wish % Inhib. at Dose): 64%
melting point: 85 to 90 °C

Molecule: CS(=O)(=O)c1ccc(-c2cnn(-c3cccc(Cl)c3)c(=O)c2OCC2CC2)cc1 [Example 418, 2-(3-Chlorophenyl)-4-cyclopropanemethoxy-5-[4-(methylsulfonyl)phenyl]-3(2H)-pyridazinone]
inhibition at 100 µM [1, 7]: 33%
inhibition at 0.025 µM ([2]; 0.025 μM, read-out: RHUCX2 % Inh. at Dose): 53%
inhibition at 0.1 µM [2, 5]: 52%
inhibition at 1 µM [2, 6]: 85%
IC50 [3]: 14200 nM
IC50 [4]: 250 nM
melting point: 158 to 161 °C

Molecule: CC(C)CCc1c(-c2ccc(S(N)(=O)=O)cc2)cnn(-c2ccc(F)c(F)c2)c1=O [Example 404, 2-(3,4-Difluorophenyl)-4-(3-methylbutyl)-5-[4-(aminosulfonyl)phenyl]-3(2H)-pyridazinone]
inhibition at 10 µM [1, 9]: 47%
inhibition at 100 µM [1, 7]: 77%
inhibition at 0.01 µM ([2]; 0.01 μM, read-out: RHUCX2 % Inh. at Dose): 57%
inhibition at 0.1 µM [2, 5]: 92%
IC50 [3]: 337 nM
inhibition at 0.01 µM [4, 8]: 58%
inhibition at 0.1 µM ([4]; 0.1 μM, read-out: Wish % Inhib. at Dose): 96%
melting point: 171 to 173 °C

Molecule: CS(=O)(=O)c1ccc(-c2cnn(-c3ccc(Cl)s3)c(=O)c2-c2ccc(Cl)cc2)cc1 [Example 100, 2-(5-Chloro-2-thienyl)-4-(4-chlorophenyl)-5-[4-(methylsulfonyl)phenyl]-3(2H)-pyridazinone]
inhibition at 1 µM ([1]; 1 μM, read-out: RHUCX1 % Inh. at Dose): 65%
inhibition at 10 µM [1, 9]: 62%
inhibition at 0.1 µM [2, 5]: 61%
inhibition at 10 µM ([2]; 10 μM, read-out: RHUCX2 % Inh. at Dose): 100%
IC50 [3]: 130 nM
IC50 [4]: 20 nM
melting point: 249 to 251 °C

Molecule: NS(=O)(=O)c1ccc(-c2cnn(Cc3cccc(F)c3)c(=O)c2-c2ccc(F)cc2)cc1 [Example 149, 2-(3-Fluorobenzyl)-4-(4-fluorophenyl)-5-[4-(aminosulfonyl)phenyl]-3(2H)-pyrdazinone]
RHUCX1 % Inh. at Dose (μM) ([1]; 1 μM): 40 @ 1%
RHUCX1 % Inh. at Dose (μM) ([1]; 10 μM): 45 @ 10%
IC50 [2]: 3 nM
HWPX % Inhib. at Dose (μM) ([3]; 3 μM): 34 @ 3%
HWPX % Inhib. at Dose (μM) ([3]; 10 μM): 89 @ 10%
IC50 [4]: 30 nM

Molecule: CS(=O)(=O)c1ccc(-c2cnn(-c3ccc(F)cc3)c(=O)c2COc2ccc(F)cc2)cc1 [Example 194, 2-(4-Fluorophenyl)-4-(4-fluolophenoxymethyl)-5-[4-(methylsulfonyl)phenyl]-3(2H)-pyridazinone]
RHUCX1 % Inh. at Dose (μM) ([1]; 100 μM): 35 @ 100%
RHUCX2 % Inh. at Dose (μM) ([2]; 0.1 μM): 72 @ 0.1%
RHUCX2 % Inh. at Dose (μM) ([2]; 1 μM): 73 @ 1%
RHUCX2 % Inh. at Dose (μM) ([2]; 10 μM): 90 @ 10%
IC50 [3]: 28100 nM
IC50 [4]: 69 nM

More lines, in order of falling IC50 [4], values ahead:

RHUCX1 % Inh. at Dose (μM) ([1]; 1 μM): 85 @ 1%
RHUCX2 % Inh. at Dose (μM) ([2]; 0.1 μM): 52 @ 0.1%
RHUCX2 % Inh. at Dose (μM) ([2]; 1 μM): 98 @ 1%
HWPX % Inhib. at Dose (μM) ([3]; 1 μM): 62 @ 1%
IC50 [4]: 18 nM
Molecule: CS(=O)(=O)c1ccc(-c2cnn(-c3ccc([N+](=O)[O-])s3)c(=O)c2-c2ccc(F)cc2)cc1 [Example 105, 2-(5-Nitro-2-thienyl)-4-(4-fluorophenyl)-5-[4-(methylsulfonl)phenyl]-3(2H)-pyridazinone]

IC50 [3]: 191 nM
IC50 [4]: 16 nM
melting point: 205 to 207 °C
Molecule: CS(=O)(=O)c1ccc(-c2cnn(-c3cccc(Cl)c3)c(=O)c2Oc2ccccc2)cc1 [Example 343, 2-(3-Chlorophenyl)-4-(phenoxy)-5-[4-(methylsulfonyl)phenyl]-3(2H)-pyridazinone]

IC50 [1]: 3060 nM
IC50 [2]: 22 nM
IC50 [3]: 773 nM
IC50 [4]: 10 nM
Molecule: CC(/C=C/Cl)n1ncc(-c2ccc(S(N)(=O)=O)cc2)c(-c2ccc(F)cc2)c1=O (stereo not drawn) [Example 140, 2-(3-Chloro-1-methyl-2E-propenyl)-4-(4-fluorophenyl)-5-[4-(aminosulfonyl)phenyl]-3(2H)-pyridazinone]

IC50 [1]: 238 nM
RHUCX2 % Inh. at Dose (μM) ([2]; 0.01 μM): 56 @ 0.01%
RHUCX2 % Inh. at Dose (μM) ([2]; 0.1 μM): 86 @ 0.1%
HWPX % Inhib. at Dose (μM) ([3]; 0.3 μM): 30 @ .3%
HWPX % Inhib. at Dose (μM) ([3]; 1 μM): 72 @ 1%
IC50 [4]: 9 nM
Molecule: NS(=O)(=O)c1ccc(-c2cnn(CC3=CCCCC3)c(=O)c2-c2ccc(F)cc2)cc1 [Example 145, 2-(1-Cyclohexenylmethyl)-4-(4-fluorphenyl)-5-[4-(aminosulfonyl)phenyl]-3(2H)-pyridazinone]

RHUCX1 % Inh. at Dose (μM) ([1]; 100 μM): 8 @ 100%
RHUCX2 % Inh. at Dose (μM) ([2]; 0.1 μM): 96 @ 0.1%
RHUCX2 % Inh. at Dose (μM) ([2]; 1 μM): 100 @ 1%
HWPX % Inhib. at Dose (μM) ([3]; 1 μM): 9 @ 1%
HWPX % Inhib. at Dose (μM) ([3]; 10 μM): 86 @ 10%
IC50 [4]: 8 nM
Molecule: 2-(5-Methylthien-2-ylmethyl)-4-(4-fluorophenyl)-5-[4-(methylsulfonyl)phenyl]-3(2H)-pyridazinone [Example 43]
